Assay results from article PMC7575490 (Investigational New Drugs, 2020).
Values after ≈ are worked out from the molar mass of the structure shown.

Key:
[1] = Part 2 three-period crossover pharmacokinetics / relative bioavailability of A, B, C; assay type: in vivo, human
Protocol: This was a randomized, positive control, open, single-center study with a three-cycle crossover design in healthy Chinese subjects. […] The wash-out period was 7 days. The method employed for tablet administration was consistent with that in Part 1. […] After the suspension was comsumed by subjects,the container was rinsed with 40, 80, and 80 mL of water in turn and took them down.

ErbB2 = tested on: ErbB2; set-up: method as in PMID 27902470; conditions: previous pharmacodynamic study; read-out: IC50, ErbB2 inhibition; cited from earlier work
[2] = cited from earlier work
EGFR = tested on: EGFR; set-up: method as in PMID 27902470; conditions: previous pharmacodynamic study; read-out: IC50, EGFR inhibition; cited from earlier work
[3] = Part 1 single ascending dose pharmacokinetics in healthy Chinese subjects; conditions: for AUC0-t / AUC0-∞ / Cmax / MRT0-t / MRT0-∞ / V/F / t1/2 / λz / Tmax: analyte selatinib; for AUC0-t / AUC0-∞ / Cmax / MRT0-t / MRT0-∞ / V/F / t1/2 / λz: mean ± SD; for Tmax: median (min-max)
Protocol: This was a single-center, randomized, double-blind, placebo-controlled, single ascending study involving healthy Chinese subjects. […] Investigators and subjects were blinded to the group allociations. Treatment identity was concealed by providing drug doses and placebo of identical appearance and in identical packageing. The starting dose was calculated according to the no observed adverse effect level (NOAEL) for animals.[[[25], [26]^] […] The starting dose should be 1/10 of the human NOAEL(i.e., starting dose was 50 or 72 mg). This dose was used as a threshold guide for dose escalations. To minimize risk while providing some inhibitory effects, 50 mg was recommended for use as the starting dose. Dose escalation was designed according to the modified-Fibonacci sequence. A total of 7 dose groups were included. […] Each group consisted of 50% males and females. In addition to the 500 mg group, 2 subjects in each group were administered a single dose of placebo, one for each gender. Only 2 subjects were initially enrolled in all dose groups. Follow-up subjects were enrolled on the premise that the drug was safely tolerated at the administration dose. When all subjects in the current dose group completed the trial and this dose was deemed as tolerable, the next dose group was initiated.
Tablets were administered with 240 mL of tap water at ambient temperature. Consumption of additional water was not permitted within 1 h before and after drug administration. Light meals were served at 4 and 10 h after each dose, with identical standardized diets provided across all dosing periods.
Blood samples were collected into heparinized vacutainer tubes and gently mixed. Thereafter,plasma was separated by centrifugation (3000 rpm at 4 °C for 10 min) within 1 h of sample collection and stored frozen at −80 °C prior to analysis.
A P value<0.05 was considered to indicate statistical significance. […] Further, the logarithm of the dose and the regression coefficient and its 95%CI were calculated.

[4] = Part 2, average bioequivalence, logarithmic transformation, single 500 mg dose, suspension B vs tablets A, analyte as labelled
[5] = Part 2, single 500 mg dose of A (selatinib ditosilate tablets), n = 6, analyte as labelled, mean ± SD
[6] = Part 2, single 500 mg dose of B (selatinib ditosilate dry suspension), n = 6, analyte as labelled, mean ± SD
[7] = Part 1, across single doses 50–500 mg
[8] = Part 1, single 50 mg dose of selatinib (n = 4)
[9] = Part 1, single 100 mg dose of selatinib (n = 10)
[10] = Part 1, single 200 mg dose of selatinib (n = 10)
[11] = Part 1, single 250 mg dose of selatinib (n = 8)
[12] = Part 1, single 300 mg dose of selatinib (n = 10)
[13] = Part 1, single 350 mg dose of selatinib (n = 6)
[14] = Part 1, single 500 mg dose of selatinib (n = 4)

Q: Which results are given for `CS(=O)(=O)CCNCc1ccc(-c2ccc3ncnc(Nc4ccc(OCc5cccc(F)c5)c(Cl)c4)c3c2)o1` [lapatinib, reference compound]?
A: λz ([1]; Part 2, single 500 mg dose of C (lapatinib ditosylate tablets), n = 6, mean ± SD): 5.70 ± 1.26 ×10^−2 /h; AUC0-t ([1]; male, human, in vivo, 500 mg): 5520 ± 2190 ng·h/mL; AUC(0-inf) ([1]; male, human, in vivo, 500 mg): 5540 ± 2200 ng·h/mL; Cmax ([1]; male, human, in vivo, 500 mg): 400 ± 144 ng/mL; MRT inf ([1]; male, human, in vivo, 500 mg): 15.6 ± 2.76 h; Tmax ([1]; male, human, in vivo, 500 mg): 4.0 (2.0–5.0) h; half-life ([1]; male, human, plasma, oral, 500 mg): 12.7 ± 3.05 h; IC50 (ErbB2): […]; aqueous solubility [2]: 7 µg/mL (≈ 12 µM); IC50 (EGFR): […]

Q: With `C[S+]([O-])CCNCc1ccc(-c2ccc3ncnc(Nc4ccc(OCc5cccc(F)c5)c(Cl)c4)c3c2)o1` (stereo not shown) [selatinib] as the compound, how does the “B/A% of AUC0-t” value [1, 4] read?
A: 101.06%

Q: What about the “B/A% of AUC0-∞” value [1, 4] of the same compound?
A: 101.09%

Q: What about the “B/A% of Cmax” value [1, 4] of the same compound?
A: 94.53%

Q: What about the AUC0-t [1, 5] of the same compound?
A: 9280 ± 3800 ng·h/mL

Q: What about the “AUC0-∞” value [1, 5] of the same compound?
A: 9400 ± 3910 ng·h/mL

Q: What about the Cmax [1, 5] of the same compound?
A: 601 ± 242 ng/mL

Q: And the “MRT0-∞” value [1, 5]?
A: 19.2 ± 3.16 h

Q: And the t1/2 [1, 5]?
A: 15.6 ± 2.47 h

Q: What about the λz [1, 5] of the same compound?
A: 4.52 ± 0.682 ×10^−2 /h

Q: What about the Tmax ([1]; Part 2, single 500 mg dose of A (selatinib ditosilate tablets), n = 6, analyte as labelled, median (min-max)) of the same compound?
A: 5.0 (4.0–6.0) h

Q: What about the V/F ([1]; Part 2, single 500 mg dose of A (selatinib ditosilate tablets), n = 6, mean ± SD) of the same compound?
A: 1370 ± 586 L

Q: And the AUC0-t [1, 6]?
A: 8780 ± 1350 ng·h/mL

Q: And the “AUC0-∞” value [1, 6]?
A: 8890 ± 1410 ng·h/mL

Q: And the Cmax [1, 6]?
A: 556 ± 191 ng/mL

Q: What about the “MRT0-∞” value [1, 6] of the same compound?
A: 18.9 ± 2.87 h

Q: And the t1/2 [1, 6]?
A: 16.2 ± 1.87 h

Q: What about the λz [1, 6] of the same compound?
A: 4.32 ± 0.453 ×10^−2 /h

Q: What about the Tmax ([1]; Part 2, single 500 mg dose of B (selatinib ditosilate dry suspension), n = 6, analyte as labelled, median (min-max)) of the same compound?
A: 4.5 (3.0–6.0) h

Q: What about the V/F ([1]; Part 2, single 500 mg dose of B (selatinib ditosilate dry suspension), n = 6, mean ± SD) of the same compound?
A: 1330 ± 192 L

Q: And the “mean selatinib peak plasma concentration” value [3, 7]?
A: 69.4 to 494 ng/mL

Q: And the median peak time [3, 7]?
A: 3.5 to 4.5 h

Q: And the AUC0-t [3, 8]?
A: 969 ± 161 ng·h/mL

Q: What about the “AUC0-∞” value [3, 8] of the same compound?
A: 983 ± 165 ng·h/mL

Q: And the Cmax [3, 8]?
A: 69.4 ± 18.5 ng/mL

Q: And the MRT0-t [3, 8]?
A: 15.2 ± 3.1 h

Q: And the “MRT0-∞” value [3, 8]?
A: 16.4 ± 3.5 h

Q: What about the V/F [3, 8] of the same compound?
A: 1193.3 ± 321.8 L

Q: And the t1/2 [3, 8]?
A: 15.8 ± 2.98 h

Q: And the λz [3, 8]?
A: 4.49 ± 0.788 ×10^−2 1/h

Q: What about the Tmax [3, 8] of the same compound?
A: 4.0 (3.0–6.0) h

Q: And the AUC0-t [3, 9]?
A: 2664 ± 1039 ng·h/mL

Q: And the “AUC0-∞” value [3, 9]?
A: 2688 ± 1058 ng·h/mL

Q: What about the Cmax [3, 9] of the same compound?
A: 178 ± 48.8 ng/mL

Q: And the MRT0-t [3, 9]?
A: 15.9 ± 2.4 h

Q: What about the “MRT0-∞” value [3, 9] of the same compound?
A: 16.7 ± 2.8 h

Q: And the V/F [3, 9]?
A: 853.2 ± 279.8 L

Q: What about the t1/2 [3, 9] of the same compound?
A: 14.3 ± 2.58 h

Q: What about the λz [3, 9] of the same compound?
A: 4.98 ± 0.917 ×10^−2 1/h

Q: What about the Tmax [3, 9] of the same compound?
A: 4.0 (4.0–6.0) h

Q: And the AUC0-t [3, 10]?
A: 3708 ± 1465 ng·h/mL

Q: And the “AUC0-∞” value [3, 10]?
A: 3735 ± 1480 ng·h/mL

Q: What about the MRT0-t [3, 10] of the same compound?
A: 16.4 ± 1.7 h

Q: And the “MRT0-∞” value [3, 10]?
A: 17.1 ± 1.9 h

Q: And the V/F [3, 10]?
A: 1247.0 ± 522.4 L

Q: And the t1/2 [3, 10]?
A: 14.0 ± 1.79 h

Q: What about the λz [3, 10] of the same compound?
A: 5.01 ± 0.651 ×10^−2 1/h

Q: And the Tmax [3, 10]?
A: 4.5 (4.0–8.0) h

Q: And the AUC0-t [3, 11]?
A: 5319 ± 3248 ng·h/mL

Q: What about the “AUC0-∞” value [3, 11] of the same compound?
A: 5368 ± 3274 ng·h/mL

Q: And the Cmax [3, 11]?
A: 329 ± 211 ng/mL

Q: What about the MRT0-t [3, 11] of the same compound?
A: 17.1 ± 1.5 h

Q: And the “MRT0-∞” value [3, 11]?
A: 18.0 ± 1.8 h

Q: What about the V/F [3, 11] of the same compound?
A: 1393.7 ± 861.8 L

Q: What about the t1/2 [3, 11] of the same compound?
A: 15.3 ± 1.67 h

Q: What about the λz [3, 11] of the same compound?
A: 4.58 ± 0.495 ×10^−2 1/h

Q: And the Tmax [3, 11]?
A: 4.0 (4.0–5.0) h

Q: What about the AUC0-t [3, 12] of the same compound?
A: 5904 ± 2428 ng·h/mL

Q: And the “AUC0-∞” value [3, 12]?
A: 5958 ± 2461 ng·h/mL

Q: What about the Cmax [3, 12] of the same compound?
A: 352 ± 147 ng/mL

Q: And the MRT0-t [3, 12]?
A: 17.4 ± 2.3 h

Q: And the “MRT0-∞” value [3, 12]?
A: 18.3 ± 2.6 h

Q: What about the V/F [3, 12] of the same compound?
A: 1380.6 ± 1006.1 L

Q: What about the t1/2 [3, 12] of the same compound?
A: 15.1 ± 1.09 h

Q: What about the λz [3, 12] of the same compound?
A: 4.60 ± 0.334 ×10^−2 1/h

Q: And the Tmax [3, 12]?
A: 4.5 (4.0–6.0) h

Q: And the AUC0-t [3, 13]?
A: 7072 ± 2001 ng·h/mL

Q: What about the “AUC0-∞” value [3, 13] of the same compound?
A: 7115 ± 1995 ng·h/mL

Q: What about the Cmax [3, 13] of the same compound?
A: 494 ± 156 ng/mL

Q: And the MRT0-t [3, 13]?
A: 16.0 ± 2.6 h

Q: What about the “MRT0-∞” value [3, 13] of the same compound?
A: 16.7 ± 3.0 h

Q: What about the V/F [3, 13] of the same compound?
A: 1059.1 ± 425.1 L

Q: And the t1/2 [3, 13]?
A: 13.8 ± 2.19 h

Q: What about the λz [3, 13] of the same compound?
A: 5.14 ± 0.765 ×10^−2 1/h

Q: What about the Tmax [3, 13] of the same compound?
A: 4.5 (2.0–5.0) h

Q: And the AUC0-t [3, 14]?
A: 7142 ± 2463 ng·h/mL

Q: What about the “AUC0-∞” value [3, 14] of the same compound?
A: 7191 ± 2482 ng·h/mL

Q: And the Cmax [3, 14]?
A: 486 ± 144 ng/mL

Q: And the MRT0-t [3, 14]?
A: 15.5 ± 0.5 h

Q: And the “MRT0-∞” value [3, 14]?
A: 16.2 ± 0.5 h

Q: And the V/F [3, 14]?
A: 1650.8 ± 652.2 L

Q: What about the t1/2 [3, 14] of the same compound?
A: 14.8 ± 0.152 h

Q: And the λz [3, 14]?
A: 4.68 ± 0.0482 ×10^−2 1/h

Q: And the Tmax [3, 14]?
A: 3.5 (2.0–5.0) h

Q: And the linearity of pharmacokinetics ([3]; dose range of 50–500 mg)?
A: conformed with linear pharmacokinetics
